Laboratory results from PubChem BioAssay AID1963831 (Molecular Pharmacology Branch, DTP, NCI, 2024).

System: 889142-216-R-J1-PDC complex spheroid viability
Experiment: Anticancer human tumor 889142-216-R-J1-PDC patient-derived bladder carcinoma cell line growth inhibition [POLQ]
Details: for IC50: curve of first compound; for viability, T/C: stronger effect = lower value
How it was run: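 PDC + HUVEC + MSC complex spheroids; POLQ inhibitors ± partner drugs; top conc. at/near clinical Cmax, else 10 microM (SN-38 1 microM), half-log dilutions; 37 degrees C, 5% CO2.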

[1] = second compound 0.0316 µM, first compound 0.0316 µM
[2] = second compound 0.0316 µM, first compound 0.1 µM
[3] = second compound 0.0316 µM, first compound 0.316 µM
[4] = second compound 0.0316 µM, first compound 1 µM
[5] = second compound 0.0316 µM, first compound 3.16 µM
[6] = second compound 0.0316 µM, first compound 10 µM
[7] = second compound 0.1 µM, first compound 0.0316 µM
[8] = second compound 0.1 µM, first compound 0.1 µM
[9] = second compound 0.1 µM, first compound 0.316 µM
[10] = second compound 0.1 µM, first compound 1 µM
[11] = second compound 0.1 µM, first compound 3.16 µM
[12] = second compound 0.1 µM, first compound 10 µM
[13] = second compound 0.316 µM, first compound 0.0316 µM
[14] = second compound 0.316 µM, first compound 0.1 µM
[15] = second compound 0.316 µM, first compound 0.316 µM
[16] = second compound 0.316 µM, first compound 1 µM
[17] = second compound 0.316 µM, first compound 3.16 µM
[18] = second compound 0.316 µM, first compound 10 µM
[19] = second compound 1 µM, first compound 0.0316 µM
[20] = second compound 1 µM, first compound 0.1 µM
[21] = second compound 1 µM, first compound 0.316 µM
[22] = second compound 1 µM, first compound 1 µM
[23] = second compound 1 µM, first compound 3.16 µM
[24] = second compound 1 µM, first compound 10 µM
[25] = second compound 3.16 µM, first compound 0.0316 µM
[26] = second compound 3.16 µM, first compound 0.1 µM
[27] = second compound 3.16 µM, first compound 0.316 µM
[28] = second compound 3.16 µM, first compound 1 µM
[29] = second compound 3.16 µM, first compound 3.16 µM
[30] = second compound 3.16 µM, first compound 10 µM
[31] = second compound 10 µM, first compound 0.0316 µM
[32] = second compound 10 µM, first compound 0.1 µM
[33] = second compound 10 µM, first compound 0.316 µM
[34] = second compound 10 µM, first compound 1 µM
[35] = second compound 10 µM, first compound 3.16 µM
[36] = second compound 10 µM, first compound 10 µM
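Further: spheroids exposed to compounds for seven days.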
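Wherever viability, T/C is given: 100% = DMSO vehicle control viability.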

SMILES: CCc1cc2c(N3CCc4c(cc(Cn5ccnc5)cc4-c4cn(C)nc4C(F)(F)F)C3=O)cc(C)nc2c(OC)n1 + COC1C(OC(N)=O)C(O)C(Oc2ccc3c(O)c(NC(=O)c4ccc(O)c(CC=C(C)C)c4)c(=O)oc3c2C)OC1(C)C
- IC50 (second compound 0.0316 µM): > 10 µM
- IC50 (second compound 0.1 µM): > 10 µM
- IC50 (second compound 0.316 µM): > 10 µM
- IC50 (second compound 1 µM): > 10 µM
- IC50 (second compound 3.16 µM): > 10 µM
- IC50 (second compound 10 µM): > 10 µM
- viability, T/C [1]: 112%
- viability, T/C [2]: 124%
- viability, T/C [3]: 113%
- viability, T/C [4]: 97%
- viability, T/C [5]: 79.9%
- viability, T/C [6]: 68.6%
- viability, T/C [7]: 130%
- viability, T/C [8]: 115%
- viability, T/C [9]: 101%
- viability, T/C [10]: 101%
- viability, T/C [11]: 85.7%
- viability, T/C [12]: 58.2%
- viability, T/C [13]: 120%
- viability, T/C [14]: 132%
- viability, T/C [15]: 107%
- viability, T/C [16]: 107%
- viability, T/C [17]: 92.9%
- viability, T/C [18]: 67.7%
- viability, T/C [19]: 126%
- viability, T/C [20]: 123%
- viability, T/C [21]: 131%
- viability, T/C [22]: 105%
- viability, T/C [23]: 74.4%
- viability, T/C [24]: 61.9%
- viability, T/C [25]: 112%
- viability, T/C [26]: 106%
- viability, T/C [27]: 137%
- viability, T/C [28]: 98.4%
- viability, T/C [29]: 81.9%
- viability, T/C [30]: 55.1%
- viability, T/C [31]: 119%
- viability, T/C [32]: 102%
- viability, T/C [33]: 111%
- viability, T/C [34]: 92.2%
- viability, T/C [35]: 85.8%
- viability, T/C [36]: 62.8%

SMILES: CCc1cc2c(N3CCc4c(cc(Cn5ccnc5)cc4-c4cn(C)nc4C(F)(F)F)C3=O)ccnc2c(OC)n1 + COC1C(OC(N)=O)C(O)C(Oc2ccc3c(O)c(NC(=O)c4ccc(O)c(CC=C(C)C)c4)c(=O)oc3c2C)OC1(C)C
- IC50 (second compound 0.0316 µM): > 10 µM
- IC50 (second compound 0.1 µM): > 10 µM
- IC50 (second compound 0.316 µM): > 10 µM
- IC50 (second compound 1 µM): > 10 µM
- IC50 (second compound 3.16 µM): > 10 µM
- IC50 (second compound 10 µM): > 10 µM
- viability, T/C [1]: 120%
- viability, T/C [2]: 109%
- viability, T/C [3]: 119%
- viability, T/C [4]: 95.5%
- viability, T/C [5]: 69.1%
- viability, T/C [6]: 83%
- viability, T/C [7]: 101%
- viability, T/C [8]: 117%
- viability, T/C [9]: 98.3%
- viability, T/C [10]: 111%
- viability, T/C [11]: 105%
- viability, T/C [12]: 62%
- viability, T/C [13]: 105%
- viability, T/C [14]: 106%
- viability, T/C [15]: 102%
- viability, T/C [16]: 115%
- viability, T/C [17]: 96.1%
- viability, T/C [18]: 64.3%
- viability, T/C [19]: 112%
- viability, T/C [20]: 130%
- viability, T/C [21]: 107%
- viability, T/C [22]: 102%
- viability, T/C [23]: 83.9%
- viability, T/C [24]: 77.7%
- viability, T/C [25]: 95.6%
- viability, T/C [26]: 106%
- viability, T/C [27]: 117%
- viability, T/C [28]: 94.2%
- viability, T/C [29]: 95%
- viability, T/C [30]: 77.9%
- viability, T/C [31]: 122%
- viability, T/C [32]: 103%
- viability, T/C [33]: 112%
- viability, T/C [34]: 109%
- viability, T/C [35]: 91.6%
- viability, T/C [36]: 67.3%

SMILES: COc1cc2cc(C(=O)CCC(=O)O)sc2cc1OC + COC1C(OC(N)=O)C(O)C(Oc2ccc3c(O)c(NC(=O)c4ccc(O)c(CC=C(C)C)c4)c(=O)oc3c2C)OC1(C)C
- IC50 (second compound 0.0316 µM): > 10 µM
- IC50 (second compound 0.1 µM): > 10 µM
- IC50 (second compound 0.316 µM): > 10 µM
- IC50 (second compound 1 µM): > 10 µM
- IC50 (second compound 3.16 µM): > 10 µM
- IC50 (second compound 10 µM): > 10 µM
- viability, T/C [1]: 95.1%
- viability, T/C [2]: 93%
- viability, T/C [3]: 82.4%
- viability, T/C [4]: 114%
- viability, T/C [5]: 109%
- viability, T/C [6]: 70%
- viability, T/C [7]: 103%
- viability, T/C [8]: 106%
- viability, T/C [9]: 102%
- viability, T/C [10]: 96.9%
- viability, T/C [11]: 92.5%
- viability, T/C [12]: 81.1%
- viability, T/C [13]: 118%
- viability, T/C [14]: 120%
- viability, T/C [15]: 116%
- viability, T/C [16]: 90.6%
- viability, T/C [17]: 110%
- viability, T/C [18]: 83.6%
- viability, T/C [19]: 113%
- viability, T/C [20]: 106%
- viability, T/C [21]: 121%
- viability, T/C [22]: 113%
- viability, T/C [23]: 118%
- viability, T/C [24]: 83.9%
- viability, T/C [25]: 91.2%
- viability, T/C [26]: 113%
- viability, T/C [27]: 103%
- viability, T/C [28]: 102%
- viability, T/C [29]: 111%
- viability, T/C [30]: 101%
- viability, T/C [31]: 103%
- viability, T/C [32]: 93.2%
- viability, T/C [33]: 111%
- viability, T/C [34]: 92.8%
- viability, T/C [35]: 103%
- viability, T/C [36]: 88.2%

SMILES: O=C(Nc1ccc(O)c(NS(=O)(=O)c2ccc(F)cc2)c1)c1ccc(-c2ccccc2)cc1 + COC1C(OC(N)=O)C(O)C(Oc2ccc3c(O)c(NC(=O)c4ccc(O)c(CC=C(C)C)c4)c(=O)oc3c2C)OC1(C)C
- IC50 (second compound 0.0316 µM): > 10 µM
- IC50 (second compound 0.1 µM): > 10 µM
- IC50 (second compound 0.316 µM): > 10 µM
- IC50 (second compound 1 µM): > 10 µM
- IC50 (second compound 3.16 µM): > 10 µM
- IC50 (second compound 10 µM): > 10 µM
- viability, T/C [1]: 122%
- viability, T/C [2]: 98.7%
- viability, T/C [3]: 115%
- viability, T/C [4]: 116%
- viability, T/C [5]: 116%
- viability, T/C [6]: 67.2%
- viability, T/C [7]: 93.9%
- viability, T/C [8]: 90.7%
- viability, T/C [9]: 92.6%
- viability, T/C [10]: 108%
- viability, T/C [11]: 111%
- viability, T/C [12]: 64.7%
- viability, T/C [13]: 128%
- viability, T/C [14]: 110%
- viability, T/C [15]: 99.9%
- viability, T/C [16]: 125%
- viability, T/C [17]: 139%
- viability, T/C [18]: 73.8%
- viability, T/C [19]: 103%
- viability, T/C [20]: 115%
- viability, T/C [21]: 114%
- viability, T/C [22]: 107%
- viability, T/C [23]: 105%
- viability, T/C [24]: 75.9%
- viability, T/C [25]: 87.7%
- viability, T/C [26]: 108%
- viability, T/C [27]: 96.2%
- viability, T/C [28]: 117%
- viability, T/C [29]: 126%
- viability, T/C [30]: 73.6%
- viability, T/C [31]: 99.8%
- viability, T/C [32]: 103%
- viability, T/C [33]: 101%
- viability, T/C [34]: 118%
- viability, T/C [35]: 107%
- viability, T/C [36]: 63.7%
